Reference: PMC5736936, “Xylopine Induces Oxidative Stress and Causes G2/M Phase Arrest, Triggering Caspase-Mediated Apoptosis by p53-Independent Pathway in HCT116 Cells” (Oxidative Medicine and Cellular Longevity, 2017)
Where two headings read alike, the source gives them in different places. Blank lines part the entries; values can stand above or below the compound they belong to.

Assays:
[1] = system: PBMC (human peripheral blood mononuclear cells); experiment: Cytotoxic activity, alamarBlue assay, 72 h (noncancer cells); format: cell-based
Source text: (§1) MCF7 (human breast carcinoma), HCT116 (human colon carcinoma), HepG2 (human hepatocellular carcinoma), SCC-9 (human oral squamous cell carcinoma), HSC-3 (human oral squamous cell carcinoma), HL-60 (human promyelocytic leukemia), K-562 (human chronic myelogenous leukemia), B16-F10 (murine melanoma), MRC-5 (human lung fibroblast), WT SV40 MEF (wild-type immortalized mouse embryonic fibroblast), and BAD KO SV40 MEF (BAD gene knockout immortalized mouse embryonic fibroblast) cell lines were obtained from the American Type Culture Collection (ATCC, Manassas, VA, USA). Cells were cultured in complete medium with appropriate supplements as recommended by ATCC. All cell lines were tested for mycoplasma using the Mycoplasma Stain Kit (Sigma-Aldrich) to validate the use of cells free from contamination. Primary cell culture of peripheral blood mononuclear cells (PBMC) was obtained by standard Ficoll density protocol. The Research Ethics Committee of the Oswaldo Cruz Foundation (Salvador, BA, Brazil) approved the experimental protocol (number 031019/2013). Cell viability was examined using trypan blue exclusion assay for all experiments.
(§2) Cell viability was quantified using the alamarBlue assay according to Ahmed et al.. Cells were inserted in 96-well plates for all experiments (7 × 10^4 cells/mL for adherent cells or 3 × 10^5 cells/mL for suspended cells in 100 μL of medium). After 24 h, xylopine was dissolved in dimethyl sulfoxide (DMSO) and added to each well and incubated for 72 h. […] Four (for cell lines) or 24 h (for PBMCs) before the end of incubation, 20 μL of a stock solution (0.312 mg/mL) of the alamarBlue (resazurin, Sigma-Aldrich Co., Saint Louis, MO, USA) was added to each well. Absorbance at 570 nm and 600 nm was measured using the SpectraMax 190 Microplate Reader (Molecular Devices, Sunnyvale, CA, USA), and the drug effect was quantified as the percentage of control absorbance.

[2] = system: MRC5 (human lung fibroblast); experiment: as above; format: cell-based
Source text: as §1, §2

[3] = system: HCT116 cells; format: cell-based, human; conditions: for cell cycle block: OXA 2.5 μM
Method: Cells were harvested in a permeabilization solution containing 0.1% Triton X-100 (Sigma Chemical Co., St Louis, MO, USA), 2 μg/mL propidium iodide (Sigma Chemical Co.), 0.1% sodium citrate, and 100 μg/mL RNAse (Sigma Chemical Co.) and incubated in the dark for 15 min at room temperature. Finally, cell fluorescence was measured by flow cytometry on a BD LSRFortessa cytometer using the BD FACSDiva software (BD Biosciences) and FlowJo software 10 (FlowJo, LCC, Ashland, OR, USA).

[4] = system: cancer multicellular spheroids formed from HCT116 cells; experiment: 3D multicellular spheroids culture, alamarBlue assay, 72 h; format: cell-based, human; conditions: 3D spheroids of HCT116, alamarBlue, 72 h
Method: HCT116 cells were cultivated in three-dimensional (3D) multicellular spheroids. Briefly, 100 μL of a solution of cells (0.5 × 10^6 cells/mL) was inserted in 96-well plates with a cell-repellent surface (Greiner Bio-One, Kremsmünster, Austria) and cultured in complete medium plus 3% Matrigel (BD Biosciences, San Jose, CA, USA). Spheroids with stable structures had formed after three days. Then, the spheroids were exposed to a range of drug concentrations for 72 h, after which the cell viability was quantified by alamarBlue assay as described above.

[5] = system: HCT116 cells; experiment: Morphological analysis (May-Grünwald-Giemsa); format: cell-based, human; conditions: 24 and 48 h, DOX 1 μM, OXA 2.5 μM
Method: To evaluate alterations in morphology, cells were cultured under coverslip and stained with May-Grünwald-Giemsa. Morphological changes were examined by light microscopy using Image-Pro software.

[6] = system: HSC3 (human oral squamous cell carcinoma); experiment: Cytotoxic activity, alamarBlue assay, 72 h; format: cell-based; conditions: for IC50: HSC3, alamarBlue, 72 h
Source text: as §1, §2

[7] = system: HL-60 (human promyelocytic leukemia); experiment: Cytotoxic activity, alamarBlue assay, 72 h; format: cell-based; conditions: for IC50: HL-60, alamarBlue, 72 h;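 for Selectivity index: SI is noncancer IC50 (MRC-5 or PBMC) divided by cancer cell IC50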
Source text: as §1, §2

[8] = system: K562 (human chronic myelogenous leukemia); experiment: Cytotoxic activity, alamarBlue assay, 72 h; format: cell-based; conditions: for IC50: K562, alamarBlue, 72 h;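 for Selectivity index: SI is noncancer IC50 (MRC-5 or PBMC) divided by cancer cell IC50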
Source text: as §1, §2

[9] = system: HepG2 (human hepatocellular carcinoma); experiment: Cytotoxic activity, alamarBlue assay, 72 h; format: cell-based; conditions: for IC50: HepG2, alamarBlue, 72 h
Source text: as §1, §2

[10] = system: HCT116 (human colon carcinoma); experiment: Cytotoxic activity, alamarBlue assay, 72 h; format: cell-based; conditions: for IC50: HCT116, alamarBlue, 72 h;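 for Selectivity index: SI is noncancer IC50 (MRC-5 or PBMC) divided by cancer cell IC50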
Source text: as §1, §2

[11] = system: MCF7 (human breast carcinoma); experiment: Cytotoxic activity, alamarBlue assay, 72 h; format: cell-based; conditions: for IC50: MCF7, alamarBlue, 72 h;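 for Selectivity index: SI is noncancer IC50 (MRC-5 or PBMC) divided by cancer cell IC50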
Source text: as §1, §2

[12] = system: B16-F10 (murine melanoma); experiment: Cytotoxic activity, alamarBlue assay, 72 h; format: cell-based; conditions: for IC50: B16-F10, alamarBlue, 72 h
Source text: as §1, §2

[13] = system: HCT116 cells; experiment: Cell viability by trypan blue exclusion assay; format: cell-based, human; conditions: HCT116, trypan blue, DOX 1 μM, OXA 2.5 μM, 24 and 48 h
Source text: as §1

[14] = system: calf thymus DNA (ctDNA); experiment: DNA intercalation assay (ethidium bromide displacement); format: binding; conditions: doxorubicin 10 μM, data not shown
Method: DNA intercalation was assessed by examining the ability of xylopine to displace ethidium bromide from calf thymus DNA (ctDNA, Sigma-Aldrich Co.). The assay was conducted in 96-well plates and contained 15 μg/mL ctDNA, 1.5 μM ethidium bromide, and 10 or 20 μM xylopine in 100 μL saline solution. […] Fluorescence was measured using excitation and emission wavelengths of 320 and 600 nm, respectively.

[15] = system: BAD KO SV40 MEF (BAD gene knockout immortalized mouse embryonic fibroblast); experiment: Cytotoxic activity in BAD gene knockout fibroblasts; format: cell-based; conditions: BAD KO SV40 MEF cell line
Source text: as §1, §2

[16] = system: SCC9 (human oral squamous cell carcinoma); experiment: Cytotoxic activity, alamarBlue assay, 72 h; format: cell-based
Source text: as §1, §2

[17] = system: WT SV40 MEF (wild-type immortalized mouse embryonic fibroblast); experiment: Cytotoxic activity in wild-type fibroblasts; format: cell-based; conditions: WT SV40 MEF cell line
Source text: as §1, §2

[18] = HCT116, OXA 2.5 μM, 24 h incubation
[19] = HCT116, OXA 2.5 μM, 48 h incubation
[20] = HCT116, DOX 1 μM, 24 h incubation
[21] = HCT116, DOX 1 μM, 48 h incubation

Compound: O=C1[O][Pt]2([NH][C@@H]3CCCC[C@H]3[NH]2)[O]C1=O [OXA, oxaliplatin, reference compound]
- IC50 [1]: 14.9 µM
- IC50 [2]: 1.5 µM
- cell cycle block ([3]; HCT116, DOX 1 μM): caused cell cycle block at the phase G2/M
- DNA content (%) G0/G1 [3, 18]: 32.4 ± 3.7%
- DNA content (%) G2/M [3, 18]: 39.9 ± 1.5%
- DNA content (%) S [3, 18]: 13.5 ± 3.1%
- DNA content (%) Sub-G0/G1 [3, 18]: 8.8 ± 3.5%
- DNA content (%) G0/G1 [3, 19]: 36.2 ± 2.6%
- DNA content (%) G2/M [3, 19]: 32.2 ± 4.4%
- DNA content (%) S [3, 19]: 7.6 ± 0.4%
- DNA content (%) Sub-G0/G1 [3, 19]: 17.7 ± 1.9%
- IC50 [4]: 6 µM
- cell morphology [5]: cell shrinkage, chromatin condensation, and nuclear fragmentation
- IC50 [6]: 3.3 µM
- IC50 [7]: 0.4 µM
- IC50 [8]: 0.9 µM
- IC50 [9]: 1 µM
- IC50 [10]: 4.1 µM
- IC50 [11]: 5.9 µM
- IC50 [12]: 0.1 µM
- number of viable cells [13]: reduced the number of viable cells

- IC50 ([4]; Homo sapiens, HCT-116): 4.5 µM
Compound: COc1cccc2c1C(=O)c1c(O)c3c(c(O)c1C2=O)C[C@@](O)(C(=O)CO)C[C@@H]3O[C@H]1C[C@H](N)[C@H](O)[C@H](C)O1 [DOX, doxorubicin]
- IC50 ([1]; Homo sapiens): 5.2 µM
- IC50 ([2]; Homo sapiens): 1.5 µM
- displacement of ethidium bromide from ctDNA (fluorescence intensity) [14]: significantly reduced the fluorescence intensity
- DNA content (%) G0/G1 [3, 20]: 28.0 ± 6.3%
- DNA content (%) G2/M [3, 20]: 44.1 ± 3.4^∗ %
- DNA content (%) S [3, 20]: 10.0 ± 2.5%
- DNA content (%) Sub-G0/G1 [3, 20]: 9.7 ± 2.5%
- DNA content (%) G0/G1 [3, 21]: 22.5 ± 4.0^∗ %
- DNA content (%) G2/M [3, 21]: 44.2 ± 4.4^∗ %
- DNA content (%) S [3, 21]: 14.9 ± 2.5%
- DNA content (%) Sub-G0/G1 [3, 21]: 18.3 ± 2.5%
- cell cycle block ([3]; HCT116, DOX 1 μM): caused cell cycle block at the phase G2/M
- IC50 [15]: 0.4 µM
- cell morphology [5]: cell shrinkage, chromatin condensation, and nuclear fragmentation
- IC50 ([16]; Homo sapiens, SCC-9, SCC9, alamarBlue, 72 h): 0.5 µM
- Selectivity index ([16]; IC50(MRC5)/IC50(SCC-9)): 3
- IC50 ([6]; Homo sapiens, HSC-3): 0.3 µM
- Selectivity index ([6]; IC50(MRC5)/IC50(HSC-3)): 5
- Selectivity index ([6]; IC50(PBMC)/IC50(HSC-3)): 17.3
- IC50 ([7]; Homo sapiens): 0.3 µM
- Selectivity index ([7]; IC50(MRC5)/IC50(HL-60)): 5
- Selectivity index ([7]; IC50(PBMC)/IC50(HL-60)): 17.3
- IC50 ([8]; Homo sapiens): 0.3 µM
- Selectivity index ([8]; IC50(MRC5)/IC50(K-562)): 5
- Selectivity index ([8]; IC50(PBMC)/IC50(K-562)): 17.3
- IC50 ([9]; Homo sapiens): 0.1 µM
- Selectivity index ([9]; IC50(MRC5)/IC50(HepG2)): 15
- Selectivity index ([9]; IC50(PBMC)/IC50(HepG2)): 52
- IC50 ([10]; Homo sapiens, HCT-116): 0.1 µM
- Selectivity index ([10]; IC50(MRC5)/IC50(HCT116)): 15
- Selectivity index ([10]; IC50(PBMC)/IC50(HCT116)): 52
- IC50 ([11]; Homo sapiens): 1.1 µM
- Selectivity index ([11]; IC50(MRC5)/IC50(MCF7)): 1.4
- Selectivity index ([11]; IC50(PBMC)/IC50(MCF7)): 4.7
- Selectivity index ([12]; IC50(MRC5)/IC50(B16-F10)): 50
- Selectivity index ([12]; IC50(PBMC)/IC50(B16-F10)): 173.3
- IC50 ([12]; Mus musculus): 0.03 µM
- IC50 [17]: 0.03 µM
- number of viable cells [13]: reduced the number of viable cells

Compound: O=c1[nH]cc(F)c(=O)[nH]1 [5-FU, 5-fluorouracil]
- IC50 [15]: 7.3 µM
- IC50 [17]: 1.7 µM
